Measurements reported in patent US20060183794A1, “Drug composition containing nf-kb inhibitor” (priority 2002, published 2006).

What was measured:
NF-κB [1] = biological target: T1, NF-κB (Homo sapiens, UniProt P19838+Q04206); experiment: p6kb-Luc luciferase reporter assay of NF-κB activity in JCA-1 cells; assay type: cell-based; parameters: endogenous in cells; conditions: 2.5, 5, 10, 20, 40 μg/ml DHMEQ, 8 hours
Experimental: To measure the inhibitory effect of DHMEQ on activity of NF-κB, the activity of NF-κB on DHMEQ at various concentrations was measured using transcriptional activity of NF-κB as an index. As the reporter, the vector construct (p6kb-Luc), containing a luciferase gene as the reporter in the downstream of the promoter containing six tandem copies of the NF-κB binding sequence, was used. This reporter plasmid was transfected into JCA-1 cells using GenePOETER™ (Gene Therapy Systems). Fourteen hours after the transfection, 2.5, 5, 10, 20, and 40 μg/ml DHMEQ was added to the cell medium, followed by further incubation for 8 hours. Subsequently, cells were recovered and luciferase activity was measured. […] Each luciferase activity was measured and the absolute value was presented by standardization. All experiments were conducted independently three times, producing averages and standard deviations.
Target sequence in this assay (Q04206 whole entry): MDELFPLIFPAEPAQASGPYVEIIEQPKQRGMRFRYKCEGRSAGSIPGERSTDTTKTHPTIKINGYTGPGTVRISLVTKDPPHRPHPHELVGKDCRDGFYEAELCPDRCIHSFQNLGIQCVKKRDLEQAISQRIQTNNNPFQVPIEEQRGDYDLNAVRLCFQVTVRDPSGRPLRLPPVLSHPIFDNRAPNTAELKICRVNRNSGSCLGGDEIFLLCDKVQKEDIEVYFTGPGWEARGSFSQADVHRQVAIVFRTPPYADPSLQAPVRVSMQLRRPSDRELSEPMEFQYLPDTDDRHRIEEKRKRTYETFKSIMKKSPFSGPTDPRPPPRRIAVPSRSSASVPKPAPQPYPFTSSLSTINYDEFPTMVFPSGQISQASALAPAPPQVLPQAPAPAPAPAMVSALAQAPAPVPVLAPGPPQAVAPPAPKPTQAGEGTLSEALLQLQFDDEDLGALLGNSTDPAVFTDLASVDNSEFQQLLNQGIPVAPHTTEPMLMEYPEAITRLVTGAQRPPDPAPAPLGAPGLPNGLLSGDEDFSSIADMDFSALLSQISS
Target sequence in this assay (P19838 1-433 limits assumed): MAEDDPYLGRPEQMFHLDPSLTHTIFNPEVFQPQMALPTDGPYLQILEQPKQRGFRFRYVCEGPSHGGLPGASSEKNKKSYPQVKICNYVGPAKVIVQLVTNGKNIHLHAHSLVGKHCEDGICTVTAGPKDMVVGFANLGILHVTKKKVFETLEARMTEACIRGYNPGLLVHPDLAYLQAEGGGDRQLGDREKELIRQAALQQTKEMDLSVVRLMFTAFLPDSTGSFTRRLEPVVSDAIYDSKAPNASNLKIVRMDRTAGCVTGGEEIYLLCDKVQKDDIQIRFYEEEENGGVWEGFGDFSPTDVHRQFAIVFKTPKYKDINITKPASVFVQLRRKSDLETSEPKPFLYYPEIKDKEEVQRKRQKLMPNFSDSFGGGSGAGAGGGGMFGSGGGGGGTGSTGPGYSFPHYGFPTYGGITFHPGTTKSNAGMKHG

[2] = test system: ATL cell lines (MT-1 and TL-Om1); experiment: MTT assay, proliferation of ATL cell lines; assay type: cell-based, human
Experimental: Cells from the ATL cell lines (MT-1 and TL-Om1) and a control cell line (K562) were plated in 96-well plates at 1×10^5 cells/well and DHM2EQ was added at the desired final concentrations (2, 5, and 10 μg/ml). Cells to which the solvent DMSO had been added in equal volume (0 μg/ml) were used as […] incubation for 72 hours, cell viability was judged by the MTT assay. Relative MTT values were obtained as the ratio of the MMT values of DHM2EQ-treated cells to those of DHM2EQ-untreated cells, i.e., (MTT values of DHM2EQ-treated cells/MTT values of DHM2EQ-untreated cells)×100(%).
DHM2EQ was added to the ATL cell lines (MT-1 and TL-Om1) and a control cell line (K562) at a final concentration of 10 μg/ml and the cells were incubated for 12, 24, 48, and 72 hours. The proliferation-inhibitory effect was examined by the MTT assay. Cells to which the solvent DMSO had been added in equal volume were used as controls. Relative MTT values were obtained in the same manner as the aforementioned (1).

[3] = test system: cells of multiple myeloma (MM) patients; experiment: Hoechst staining apoptosis assay, cells of multiple myeloma patients; assay type: cell-based, human; conditions: 10 μg/ml, 72 hours
Experimental: Further, to investigate apoptosis induction of cells of multiple myeloma (MM) patients by DHMEQ, cells of multiple myeloma (MM) patients were incubated for 72 hours at a concentration of 10 μg/ml and the apoptosis was examined by observing nuclear condensation or fragmentation with a fluorescence microscope, using Hoechst staining.

[4] = test system: human pancreatic cancer cell lines, Panc-1, PK-8, and Colo357; experiment: In vitro proliferation of human pancreatic cancer cell lines, DHMEQ with irradiation; assay type: cell-based
Experimental: The in vitro suppressive effect of DHMEQ on proliferation of human pancreatic cancer cell lines when DHMEQ and irradiation are used in combination was investigated. The human pancreatic cancer cell lines, Panc-1, PK-8, and Colo357 were plated 10 cm dishes (5×10^5 cells each). After two days, cells were irradiated with either 2.5 Gy or 10 Gy radiation, followed by administration of 10 μg/ml DHMEQ for 4 hours in the combinatin group. The number of cells was measured after 24 hours. Either the point of the completion of irradiation or the point of the start of the drug administration was assumed to be 0 hours.

NF-κB [5] = biological target: T1, NF-κB; experiment: Gel shift assay of constitutive NF-κB activation in Hodgkin's lymphoma cell lines; assay type: cell-based; parameters: endogenous in cells; host or cells: HL cell lines KMH2, L428, L540, HDLM2 (A30: KMH2 treated with antitumor agents)
Experimental: The ATL cell lines (MT-1 and TL-Om1) and the control cell lines (K562 and Jurkat+TNF), 2×10^6 cells each, were treated with 10 μg/ml DHM2EQ for 12 hours, and nuclear extract was prepared from each cell line. Likewise, nuclear extract was prepared also from the cell lines not treated with DHM2EQ. MT-1 and TL-Om1 are the cell lines transformed with HTLV-1; NF-κB is activated in these cell lines. K562 (myelocytic leukemia cell line) is a cell line in which constitutive NF-κB is not confirmed (a negative control), and Jurkat+TNF is a […] consensus oligomers (Promega) were end-labeled with [γ-^32P]-ATP and polynucleotide kinase (PNK) to prepare ^32P-labeled NF-κB probes.
The equivalent of 2 μg of nuclear extract protein was mixed with NF-κB probes (the equivalent of 10,000 cpm) in a volume of 20 μl and reacted at room temperature for 30 min. The solution after the reaction was subjected to 7.5% polyacrylamide gel electrophoresis. The gel was then dried and exposed to an X-ray film.
The HL cell lines, KMH2, L428, L540, and HDLM2, and the control cell line K562 (2×10^6 cells each) were treated with 10 μg/ml DHMEQ for 12 hours, and nuclear extract was prepared from each cell line. The gel shift assay was performed in the same method as in Example 4 (1) and the inhibitory effect on NF-κB was examined. […] Cell line K562 (myelocytic leukemia cell line) is a cell line in which constitutive activation of NF-κB is not observed, and thus used as the negative control. On the other hand, the TNF-treated Jurkat (Jurkat+TNF) was used as the positive control.
Next, the HL cell lines KMH2 and L540 were treated with 10 μg/ml DHMEQ and nuclear extract was prepared from each cell line. The gel shift assay was performed in the same method as in Example 4 (1) and the time-course inhibitory effect on NF-κB was examined.
Thus, investigation was performed to determine whether these signals have NF-κB-specific subunits of DHMEQ resistance. Further, the HL cell lines, KMH2, L428L-540, and HDLM2 were treated with 5 μg/ml DHMEQ for 12 hours, and the remaining component of NF-κB was supershifted with antibodies against p50, p65, and c-Rel according to the same method as described in Example 1.
Target sequence in this assay (P19838 1-433 limits assumed): as above
Target sequence in this assay (Q04206 whole entry): as the sequence (Q04206 whole entry) above

O=C(NC1=CC(=O)C2OC2C1O)c1ccccc1O (stereo not shown) [DHMEQ, 5,6-epoxy-4-hydroxy-3-salicyloylamino-2-cyclohexenone]
NF-κB activity (luciferase) in JCA-1 cells (NF-κB [1]): concentration-dependently inhibits | cell proliferation, time course (MTT) ([2]; 10 μg/ml, 12, 24, 48, 72 hours): inhibited in proportion to the DHM2EQ treatment time | cell proliferation, concentration dependence (MTT) ([2]; 2, 5, 10 μg/ml, 72 hours): inhibited in proportion to the DHM2EQ concentrations added | apoptosis (Hoechst staining) [3]: induces apoptosis | suppressive effect on proliferation in combination with irradiation ([4]; Colo357 and Panc-1, 10 μg/ml 4 hours after irradiation): synergistic suppressive effect | enhancement of irradiation effect (2.5 Gy to 10 Gy or equivalent) ([4]; Colo357 and Panc-1, combination with irradiation): four-fold | suppressive effect on proliferation, DHMEQ alone ([4]; PK-8 and Colo357, 10 μg/ml, 4-hour contact, cell number after 24 hours): sufficient suppressive effect | radiation dose of equal effect ([4]; PK-8 and Colo357, 10 μg/ml, 4 hours): 2.5 Gy | effectiveness of DHMEQ alone ([4]; Panc-1): less effective | signals by NF-κB (gel shift) (NF-κB [5]; KMH2, L428, L540, HDLM2, 10 μg/ml, 12 hours): almost lost | persistence of inhibition of NF-κB activation (NF-κB [5]; KMH2 and L540, 10 μg/ml): sustained even after a lapse of 16 hours | activation of NF-κB, time course (gel shift) (NF-κB [5]; KMH2 and L540, 10 μg/ml, 1 hour after treatment): almost inhibited | remaining NF-κB signals after DHMEQ treatment (NF-κB [5]; L428 and KMH2): weak signals remain
